From US20040157866A1, “Amide compounds” (priority 2001, published 2004)

How the values were obtained:
ddY-mice = test: Test 2: Lipids Lowering Effect on ddY-Mice; format: in vivo; settings: male ddY-mice, oral dose 10 mg/kg, relative to baseline; for Cholesterol (% of 0 hr) 2 hr: plasma total-cholesterol 2 hours after administration; for Triglyceride (% of 0 hr) 2 hr: plasma triglyceride 2 hours after administration
Source text: Test 2: Lipids Lowering Effect on ddY-Mice
Male ddY-mice were housed in temperature- and humidity-controlled rooms and fed with laboratory chow. The animals were randomized according to their body weight and deprived of food just before the experiment. A blood sample (baseline blood sample) was collected from the retro orbital venous plexus before administration of the test drug, and then the animals were orally dosed with the test drug in a vehicle (aqueous solution of 0.5% methylcellulose). Blood samples were drawn at 2 hours after drug administration for the measurement of cholesterol and triglyceride.
Plasma total-cholesterol and plasma triglyceride were determined by conventional enzyme methods using commercially available kits. The cholesterol CII-Test Wako (Wako Pure Chemical Industries, Ltd.) was used for the measurement of cholesterol, and the triglyceride E-test Wako (Wako Pure Chemical Industries, Ltd.) was used for the measurement of triglyceride.
Lipids lowering effects were shown in percent relative to the baseline level (level at 0 hr).

Apo B secretion = test: Test 1: Measurement of Inhibition of Apo B Secretion (HepG2 cells, ELISA); format: cell-based; settings: 1 × 10^−8 M test compound, 15-hour incubation, 0.1% DMSO treated cells as controls; for inhibition at 0.01 µM: Homo sapiens
Method: Test 1: Measurement of Inhibition of Apo B Secretion
HepG2 cells were seeded in Eagles medium containing 10% fetal calf serum (FCS) at a density of 30000 cells/well in 96-well plates and allowed to grow for 3 days before treatment. At this time, the medium was replaced with fresh medium containing 0.1% dimethyl sulfoxide (DMSO) and the indicated concentrations of a test compound. After 15-hour incubation, the amount of Apo B and Apo AI accumulated in the media was determined by ELISA.
The assay was carried out at room temperature. A flat bottomed micro ELISA plate (manufactured by Nunc) was coated with an anti Apo B monoclonal antibody solution ([…] in 0.05% carbonate buffer, pH 9.6) by adding the antibody solution at a volume of 100 μl per well. After 1-hour incubation on a plate mixer, the unbound materials were removed by washing the well 3 times with a washing buffer (phosphate buffered saline, pH 7.2 containing 0.1% bovine serum albumin and 0.05% Tween-20). Then 20 μl of a solution of the test compound (dissolved in the culture medium) and 100 μl of a solution of peroxidase coupled anti Apo B antibody were added. After 1-hour incubation on a plate mixer, washing was performed 3 times to remove the unbound materials. A freshly prepared substrate solution (2.5 mg/ml ortho-phenylene diamine and 0.018% H2O2 in 0.11M Na2HPO4-0.044 M sodium citrate buffer, pH 5.4) at a volume of 200 μl was then added to each well. After 20-minute incubation, the enzyme reaction was terminated by adding 50 μl of 0.5 M sulfuric acid. Absorbance of each well was determined at 490 nm using a microplate reader. Apo B concentration was calculated from a standard curve generated from purified Apo B standard that was run in parallel in the same plate. Inhibition of Apo B secretion by the test compound is calculated taking 0.1% DMSO treated cells as controls.
Measurement of Apo AI was performed similar to that of Apo B, except for diluting the sample 11-fold with a dilution buffer (phosphate buffered saline, pH 7.2 containing 0.5% bovine serum albumin and 0.05% Tween-20).
Apo B secretion inhibitors are identified as compounds that decrease Apo B secretion without affecting the secretion of Apo AI.

For `O=C(Nc1ccc2c(c1)CCN2CCc1ccccn1)c1ccccc1-c1ccc(C(F)(F)F)cc1` [Example 1, N-{1-[2-(2-Pyridinyl)ethyl]-2,3-dihydro-1H-indol-5-yl}-4′-(trifluoromethyl)-1,1′-biphenyl-2-carboxamide], which “Cholesterol (% of 0 hr) 2 hr” value (ddY-mice) is on record?
The value was 90 % of 0 hr.

And the “Triglyceride (% of 0 hr) 2 hr” value (ddY-mice)?
Its value is 13 % of 0 hr.

And the inhibition at 0.01 µM (Apo B secretion)?
Its inhibition at 0.01 µM is 92.2%.

Which “Cholesterol (% of 0 hr) 2 hr” value (ddY-mice) does the source give for `O=C(Nc1ccc2c(c1)CCN2C(=O)Cc1ccccn1)c1ccccc1-c1ccc(C(F)(F)F)cc1` [Example 4, N-[1-(2-Pyridinylacetyl)-2,3-dihydro-1H-indol-5-yl]-4′-(trifluoromethyl)-1,1′-biphenyl-2-carboxamide] here?
Its value is 75 % of 0 hr.

What about the “Triglyceride (% of 0 hr) 2 hr” value (ddY-mice) of the same compound?
Its value is 13 % of 0 hr.

What about the “Inhibition of Apo B secretion at 1 × 10^−8 M (%)” value (Apo B secretion) of the same compound?
The value was 92.0%.

How did the “Inhibition of Apo B secretion at 1 × 10^−8 M (%)” value (Apo B secretion) turn out when `Cc1ccc(-c2cc(C)ccc2C(=O)Nc2ccc3c(c2)CCN3C(=O)Cc2ccccn2)cc1` [Example 11, 4′,5-Dimethyl-N-[1-(2-pyridinylacetyl)-2,3-dihydro-1H-indol-5-yl]-1,1′-biphenyl-2-carboxamide] was run?
The value was 97.2%.

With `Nc1nc(CC(=O)N2CCc3cc(NC(=O)c4ccccc4-c4ccc(C(F)(F)F)cc4)ccc32)cs1` [Example 58, N-{1-[(2-amino-1,3-thiazol-4-yl)acetyl]-2,3-dihydro-1H-indol-5-yl}-4′-(trifluoromethyl)-1,1′-biphenyl-2-carboxamide] as the compound, how does the inhibition at 0.01 µM (Apo B secretion) read?
Its inhibition at 0.01 µM is 90.7%.
